The subject of series [1] is human SW1573 lung cancer cells. Put plainly: Tumor cell proliferation in nude mice with SW1573 cells, paclitaxel. The conditions noted are these: increasing doses, 2H2O labeling 24 hours. It counts as in vivo. As for the experimental part:
(§1) Nude mice were implanted with human SW1573 lung cancer cells (5×10^6 cells/animal), injected with varying doses of paclitaxel, and labeled with ^2H2O for 24 hours. Both vehicle (1:1 [v/v] solution of ethanol:cremephor EL) and paclitaxel stock (dissolved in 1:1 v/v solution of ethanol:cremephor EL) were diluted 1:6, prior to injection into animals, with sterile 0.1 M Phosphate Buffered Saline (PBS). Tumor cells and bone marrow cells were removed using techniques well known in the art and as described, supra.
(§2) Colonocytes were removed as follows: The colon was removed from animals and washed with 0.1 M Phosphate Buffered Saline (PBS), cut open, and incubated in PBS containing collagenase type2 (72 mg/mL) and DNase (10 μg/mL) at 37° C., gently shaken for 40 minutes. After incubation, tissue was gently scraped and cells were collected by centrifugation at 800×g for 5 minutes at 4° C. The pellet was homogenously suspended in 45% percoll in 1.6% JMEM medium. The suspension was applied on top of a 5 mL cushion of 45% (v/v) percoll in a 75% percoll gradient and centrifuged at 350×g for 30 minutes at room temperature. Colonocytes were collected and washed twice with PBS. Debris was then separated from the cell suspension using a […] filter. […] FIG. 11 depicts the results.

The test system of series [2] is mouse bone marrow cells. Put plainly: Bone marrow cell proliferation in nude mice, paclitaxel. It is filed as in vivo. Conditions: SW1573, increasing doses, 2H2O labeling 24 hours. Here is the method:
as §1, §2

For series [3], the system named is mouse colon cells (colonocytes). The series is described as follows: Colonocyte proliferation in nude mice, paclitaxel. It counts as in vivo. Conditions: SW1573, increasing doses, 2H2O labeling 24 hours. As for the experimental part: as §1, §2
Series [4] deals with liver cell. Put plainly: Liver cell proliferation after griseofulvin in chow. Conditions: C57BL/6 mice, below the no observable effect level, 5 days. Here is the method: (§3) Cell proliferation and collagen synthesis (turnover) were also assessed concurrently (i.e., simultaneously) in mice (C57BL/6 and Balb/c) fed griseofulvin. Griseofulvin is recognized as a hepatotoxin, inducing cell proliferation and porphyria. Mice were administered griseofulvin in their chow (1% w/w) for 5 days.

Series [5] concerns liver collagen. Put plainly: Liver collagen synthesis (turnover) after griseofulvin in chow. It is filed as in vivo, mouse. Conditions: C57BL/6 mice, doses tested, 5 days (data not shown). Here is the method:
as §3

SMILES strings stand for the structures. “Also recorded” adds a separate entry of the source.

In the case of `CC(=O)O[C@H]1C(=O)[C@@]2(C)[C@H]([C@H](OC(=O)c3ccccc3)[C@]3(O)C[C@H](OC(=O)[C@H](O)[C@@H](NC(=O)c4ccccc4)c4ccccc4)C(C)=C1C3(C)C)[C@]1(OC(C)=O)CO[C@@H]1C[C@@H]2O` [paclitaxel], in series [1], the “tumor cell proliferation relative to vehicle controls” value is “inhibitory effect, in a dose-dependent manner; also recorded: inhibited, in a dose-dependent manner”. In series [2], the “bone marrow cell proliferation relative to vehicle controls” value was “little or no effect”. In series [3], the “colonocyte proliferation relative to vehicle controls” value was “inhibitory effect, in a dose-dependent manner; also recorded: inhibited, in a dose-dependent manner”.
With `COC1=CC(=O)C[C@@H](C)[C@]12Oc1c(Cl)c(OC)cc(OC)c1C2=O` [griseofulvin], the “liver cell proliferation, lowest dose / levels below the NOEL” value in series [4] was “pronounced effects and dose responsiveness; also recorded: observable effect”. Moreover, in series [5], the “liver collagen synthesis (collagen turnover)” value is recorded as “no increase; also recorded: no effect”.
